We go through one molecule from patent US11358940B2, “K-Ras modulators” (THE REGENTS OF THE UNIVERSITY OF CALIFORNIA, priority 2017, dated 2022).

The test system of this experiment is KRAS4b G12D, KRAS4b G12V, HRas WT/P53-, and SUIT-2. Kind of experiment: Cell proliferation experiments with analogues of FNL-0045. Conditions: FIG. 15B. It counts as cell-based. Here is the method: Cell viability in the presence of compounds (discussed in examples above) was measured using CellTiter-Glo (Promega). Cells were plated in black-walled 384-well plates (Greiner, 781091) at densities in accordance with their doubling time (for MEFs typically 1,000 cells/well in 20 μl), using the Multidrop Combi Reagent Dispenser (Thermo). They were then incubated overnight at 37° C. in a humidified atmosphere of 5% CO2 prior to compound addition.
Compound and dimethylsulfoxide (DMSO) addition to microplates was performed using the Access Laboratory Workstation (Labcyte) and Echo 555 (Labcyte) liquid handler. Source plates with compounds and DMSO were prepared and the Echo 555 was used to transfer 50 nL of compound, DMSO, or both to the appropriate wells. […] of complete culture medium was added to all wells of the microplate after compound addition. […]
Cells were incubated with compounds for 72 h. […] Cellular ATP levels (an indicator of cell count) were determined with CellTiter-Glo (CTG, Promega G7573) luminescence assay, using an EnVision Plate Reader (PerkinElmer).
Plates were harvested at two time points. […] After 72 h incubation, the compound treated plates were harvested using CTG reagent and luminescence read using the EnVision giving control growth (C) and compound treated well (T72) measurements. Growth inhibition was calculated by: […]

In the case of `Cn1nc(C(=O)NCc2cn(C[C@@H]3CO3)nn2)c2ccccc21` [FNL-0088], the “proliferation assay, R enantiomer compared with S enantiomer FNL-0090” value is “compared favorably”.
